Measured values reported in US9745325B2, “Fused heterocyclic compound” (Takeda Pharmaceutical Company Limited, priority 2014, dated 2017).

How the values were obtained:
CDK8/CycC = biological target: T1, CDK8/CycC (Homo sapiens, UniProt P49336); assay: CDK8 inhibitory activity (Kinase Tracer-236 / Eu-anti-GST fluorescence assay); assay type: binding; design: Percent inhibition of CDK8 activity (%): concentration or dose not given beside the values; conditions: for Percent inhibition of CDK8 activity (%): test compound concentration given as '1 1.1.1\4' [sic]
T1 construct: purchased Carna Biosciences
T1 sequence (P49336 whole entry): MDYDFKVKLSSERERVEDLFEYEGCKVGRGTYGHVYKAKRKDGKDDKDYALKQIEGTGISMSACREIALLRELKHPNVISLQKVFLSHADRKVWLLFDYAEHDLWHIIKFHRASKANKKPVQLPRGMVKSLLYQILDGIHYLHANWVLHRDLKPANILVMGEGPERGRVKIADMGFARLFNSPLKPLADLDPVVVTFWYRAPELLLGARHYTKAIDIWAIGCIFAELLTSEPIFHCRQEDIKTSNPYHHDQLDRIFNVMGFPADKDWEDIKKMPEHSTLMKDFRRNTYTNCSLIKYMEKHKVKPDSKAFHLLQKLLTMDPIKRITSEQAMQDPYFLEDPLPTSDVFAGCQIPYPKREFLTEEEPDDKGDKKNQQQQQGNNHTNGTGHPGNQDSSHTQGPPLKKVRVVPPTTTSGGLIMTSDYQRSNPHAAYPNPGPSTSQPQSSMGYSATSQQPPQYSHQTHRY
T1 sequence (P24863 whole entry partner): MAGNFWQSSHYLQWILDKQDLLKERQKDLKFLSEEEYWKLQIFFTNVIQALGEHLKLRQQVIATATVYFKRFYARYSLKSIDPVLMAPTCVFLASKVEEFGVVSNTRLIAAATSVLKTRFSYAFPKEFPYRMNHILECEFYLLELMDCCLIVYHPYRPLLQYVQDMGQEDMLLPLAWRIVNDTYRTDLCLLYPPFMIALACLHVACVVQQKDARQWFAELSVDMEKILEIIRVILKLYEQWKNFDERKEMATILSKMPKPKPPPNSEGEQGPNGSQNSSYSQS
Protocol: (§1) The compound of the present invention was evaluated for its CDK8 inhibitory activity and CDK19 inhibitory activity by the following method. […] The primary diluted solution was dispensed in the amount of 2 μL/well to a 384-well plate, and then, a mixed solution of Eu^3+ Cryptate conjugated mouse monoclonal antibody anti-glutathione S-transferase (Cisbio) diluted 267-fold with an assay buffer and 60 nM Kinase Tracer-236 (Life technologies) was added thereto at 2 μL/well. […] After the addition, the plate was left standing at room temperature for 1 hour, and then, the fluorescence intensity (excitation wavelength 320 nm, fluorescence wavelength 615 nm, 665 nm, delay time 50 μsec) was measured using ann EnVision plate reader (PerkinElmer). The percent inhibition of CDK8 or CDK19 activity by the test compound can be calculated according to the following formula, wherein the fluorescence intensity of a reaction solution in the absence of compound is defined as the control, and the fluorescence intensity of a reaction solution in the presence of 10 μM of control compound is defined as the blank.

CDC2L6/CycC (CDK19) = biological target: T2, CDC2L6/CycC (CDK19) (Homo sapiens, UniProt Q9BWU1); assay: CDK19 inhibitory activity (Kinase Tracer-236 / Eu-anti-GST fluorescence assay); assay type: binding; design: Percent inhibition of CDK19 activity (%): concentration or dose not given beside the values; conditions: for Percent inhibition of CDK19 activity (%): test compound concentration given as '1 1.1.1\4' [sic]
T2 construct: purchased Carna Biosciences Inc
T2 sequence (Q9BWU1 whole entry): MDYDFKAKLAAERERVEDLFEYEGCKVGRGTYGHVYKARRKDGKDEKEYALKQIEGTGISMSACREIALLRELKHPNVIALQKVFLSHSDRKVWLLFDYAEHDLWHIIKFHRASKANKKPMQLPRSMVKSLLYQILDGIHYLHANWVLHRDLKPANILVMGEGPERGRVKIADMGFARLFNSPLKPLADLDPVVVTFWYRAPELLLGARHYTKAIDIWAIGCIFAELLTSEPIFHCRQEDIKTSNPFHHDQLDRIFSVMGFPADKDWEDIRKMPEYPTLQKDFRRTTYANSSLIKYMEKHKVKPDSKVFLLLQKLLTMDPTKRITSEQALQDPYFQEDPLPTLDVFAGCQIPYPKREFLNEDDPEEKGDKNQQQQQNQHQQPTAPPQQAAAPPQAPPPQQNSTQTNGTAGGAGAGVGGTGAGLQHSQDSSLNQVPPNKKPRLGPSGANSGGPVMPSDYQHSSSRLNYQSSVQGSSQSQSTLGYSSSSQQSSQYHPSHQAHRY
T2 sequence (P24863 whole entry partner): as the sequence (P24863 whole entry partner) above
Protocol: as §1

[1] = test system: human multiple myeloma RPMI8226 cells; assay: Inhibitory activity against human multiple myeloma RPMI8226 cell growth (CellTiter-Glo); assay type: cell-based; conditions: 1 μM test compound, cultured for 8 days; for inhibition at 1 µM: Homo sapiens, RPMI-8226, 192 h, read-out: Percent inhibition of RPMI8226 cell growth (%)
Protocol: The compound of the present invention was evaluated for its inhibitory activity against human multiple myeloma RPMI8226 cell growth by the following method.
A suspension of human multiple myeloma RPMI8226 cells (purchased from the Health Protection Agency) was inoculated at 40 μL (300 cells/well) to a 384-well plate and cultured at 37° C. for 1 day in a 5% CO2 incubator. After the culture, each test compound solution was added thereto at a test concentration of 1 μM using TECAN D300, and the cells were further cultured for 8 days. After the culture, CellTiter-Glo™ Luminescent Cell Viability Assay reagent (Promega) was added at 40 μL/well to a 384-well plate, and the amount of luminescence was measured using a luminometer. Inhibitory activity against human multiple myeloma RPMI8226 cell growth (percent inhibition (%)) of the test compound was calculated according to the following formula, which is based on the hypothesis that the amount of residual ATP reflects the number of cells. In this formula, 100% control represents the amount of luminescence from a well with only 0.1% DMSO added. Percent inhibition (%)=(1−(amount of luminescence of the test compound)÷(100% control))×100

## CCOCCNC(=O)c1ccc(Oc2sc(C(N)=O)c3c2-c2sncc2CC3)cc1 [Example 120]
CDK8/CycC
  Percent inhibition of CDK8 activity (%): 104%
CDC2L6/CycC (CDK19)
  Percent inhibition of CDK19 activity (%): 99%
[1]
  inhibition at 1 µM: 74%

## Oc1ccc(-c2n[nH]cc2-c2ccc3c(c2)OCCO3)c(O)c1 [control compound, 4-(4-(2,3-dihydro-1,4-benzodioxin-6-yl)-1H-pyrazol-3-yl)benzene-1,3-diol, reference compound]
CDK8/CycC; control compound, for reference, read-out: CDK8 inhibition IC50
  IC50: 0.12 µM
CDC2L6/CycC (CDK19); control compound, for reference, read-out: CDK19 inhibition IC50
  IC50: 0.13 µM

## NC(=O)c1sc(Oc2ccc(Br)cc2)c2c1CCc1cnsc1-2 [Example 1, 8-(4-Bromophenoxy)-4,5-dihydrothieno[3,4-g][1,2]benzothiazole-6-carboxamide]
CDK8/CycC
  Percent inhibition of CDK8 activity (%): 100%
CDC2L6/CycC (CDK19)
  Percent inhibition of CDK19 activity (%): 103%
[1]
  inhibition at 1 µM: 56%

## NC(=O)c1sc(Oc2ccc(C(=O)O)nc2)c2c1CCc1cnsc1-2 [Example 12, 5-((6-Carbamoyl-4,5-dihydrothieno[3,4-g][1,2]benzothiazol-8-yl)oxy)pyridine-2-carboxylic acid]
CDK8/CycC
  Percent inhibition of CDK8 activity (%): 100%
CDC2L6/CycC (CDK19)
  Percent inhibition of CDK19 activity (%): 97%
[1]
  inhibition at 1 µM: 65%

## Cc1nc(NC(=O)C2CC2)ccc1Oc1sc(C(N)=O)c2c1-c1sncc1CC2 [Example 30, 8-((6-((Cyclopropylcarbonyl)amino)-2-methylpyridin-3-yl)oxy)-4,5-dihydrothieno[3,4-g][1,2]benzothiazole-6-carboxamide]
CDK8/CycC
  Percent inhibition of CDK8 activity (%): 104%
CDC2L6/CycC (CDK19)
  Percent inhibition of CDK19 activity (%): 102%
[1]
  inhibition at 1 µM: 71%

## CNC(=O)c1ccc(Oc2sc(C(N)=O)c3c2-c2sncc2CC3)c(C)n1 [Example 112, 8-((2-Methyl-6-(methylcarbamoyl)pyridin-3-yl)oxy)-4,5-dihydrothieno [3,4-g][1,2]benzothiazole-6-carboxamide]
CDK8/CycC
  Percent inhibition of CDK8 activity (%): 106%
CDC2L6/CycC (CDK19)
  Percent inhibition of CDK19 activity (%): 102%
[1]
  inhibition at 1 µM: 69%

## Cc1nc(C(=O)N(C)C)ccc1Oc1sc(C(N)=O)c2c1-c1sncc1CC2 [Example 116, 8-((6-(Dimethylcarbamoyl)-2-methylpyridin-3-yl)oxy)-4,5-dihydrothieno[3,4-g][1,2]benzothiazole-6-carboxamide]
CDK8/CycC
  Percent inhibition of CDK8 activity (%): 103%
CDC2L6/CycC (CDK19)
  Percent inhibition of CDK19 activity (%): 99%
[1]
  inhibition at 1 µM: 61%

## Cc1nc(N(C)C(=O)C2CC2)ccc1Oc1sc(C(N)=O)c2c1-c1sncc1CC2 [Example 26, 8-((6-((Cyclopropylcarbonyl)(methyl)amino)-2-methylpyridin-3-yl)oxy)-4,5-dihydrothieno[3,4-g][1,2]benzothiazole-6-carboxamide]
CDK8/CycC
  Percent inhibition of CDK8 activity (%): 103%
CDC2L6/CycC (CDK19)
  Percent inhibition of CDK19 activity (%): 102%
[1]
  inhibition at 1 µM: 66%

## COCCNC(=O)c1ccc(Oc2sc(C(N)=O)c3c2-c2sncc2CC3)cn1 [Example 139, 8-((6-((2-Methoxyethyl)carbamoyl)pyridin-3-yl)oxy)-4,5-dihydrothieno[3,4-g][1,2]benzothiazole-6-carboxamide succinic acid (1:1)]
CDK8/CycC
  Percent inhibition of CDK8 activity (%): 103%
CDC2L6/CycC (CDK19)
  Percent inhibition of CDK19 activity (%): 100%
[1]; 1 µM
  Percent inhibition of RPMI8226 cell growth (%): 71%

## COCC(=O)N(C)c1ccc(Oc2sc(C(N)=O)c3c2-c2sncc2CC3)c(C)n1 [Example 126, 8-((6-((Methoxyacetyl)(methyl)amino)-2-methylpyridin-3-yl)oxy)-4,5-dihydrothieno[3,4-g][1,2]benzothiazole-6-carboxamide]
CDK8/CycC
  Percent inhibition of CDK8 activity (%): 103%
CDC2L6/CycC (CDK19)
  Percent inhibition of CDK19 activity (%): 102%
[1]
  inhibition at 1 µM: 67%

## CC1(C(=O)Nc2ccc(Oc3sc(C(N)=O)c4c3-c3sncc3CC4)cn2)COC1 [Example 20, 8-((6-(((3-Methyloxetan-3-yl)carbonyl)amino)pyridin-3-yl)oxy)-4,5-dihydrothieno[3,4-g][1,2]benzothiazole-6-carboxamide]
CDK8/CycC
  Percent inhibition of CDK8 activity (%): 102%
CDC2L6/CycC (CDK19)
  Percent inhibition of CDK19 activity (%): 99%
[1]
  inhibition at 1 µM: 66%

## CC(C)(O)C(=O)Nc1ccc(Oc2sc(C(N)=O)c3c2-c2sncc2CC3)cn1 [Example 22, 8-((6-((2-Hydroxy-2-methylpropanoyl)amino)pyridin-3-yl)oxy)-4,5-dihydrothieno[3,4-g][1,2]benzothiazole-6-carboxamide]
CDK8/CycC
  Percent inhibition of CDK8 activity (%): 102%
CDC2L6/CycC (CDK19)
  Percent inhibition of CDK19 activity (%): 104%
[1]
  inhibition at 1 µM: 71%

## Cc1ncccc1Oc1sc(C#N)c2c1-c1sncc1CC2 [Example 40, 8-((2-Methylpyridin-3-yl)oxy)-4,5-dihydrothieno[3,4-g][1,2]benzothiazole-6-carbonitrile]
CDK8/CycC
  Percent inhibition of CDK8 activity (%): 69%
CDC2L6/CycC (CDK19)
  Percent inhibition of CDK19 activity (%): 58%
[1]
  inhibition at 1 µM: 61%

## COCCN(C)C(=O)c1ccc(Oc2sc(C(N)=O)c3c2-c2sncc2CC3)c(C)n1 [Example 121, 8-((6-((2-Methoxyethyl)(methyl)carbamoyl)-2-methylpyridin-3-yl)oxy)-4,5-dihydrothieno[3,4-g][1,2] benzothiazole-6-carboxamide]
CDK8/CycC
  Percent inhibition of CDK8 activity (%): 104%
CDC2L6/CycC (CDK19)
  Percent inhibition of CDK19 activity (%): 101%
[1]
  inhibition at 1 µM: 63%

## NC(=O)c1sc(Oc2ccc(=O)[nH]c2)c2c1CCc1cnsc1-2 [Example 33, 8-((6-Oxo-1,6-dihydropyridin-3-yl)oxy)-4,5-dihydrothieno[3,4-g][1,2]benzothiazole-6-carboxamide]
CDK8/CycC
  Percent inhibition of CDK8 activity (%): 101%
CDC2L6/CycC (CDK19)
  Percent inhibition of CDK19 activity (%): 99%
[1]
  inhibition at 1 µM: 69%

## N#Cc1ccc(Oc2sc(C(N)=O)c3c2-c2sncc2CC3)cc1 [Example 2, 8-(4-Cyanophenoxy)-4,5-dihydrothieno[3,4-g][1,2] benzothiazole-6-carboxamide]
CDK8/CycC
  Percent inhibition of CDK8 activity (%): 100%
CDC2L6/CycC (CDK19)
  Percent inhibition of CDK19 activity (%): 100%
[1]
  inhibition at 1 µM: 58%

## CCOCCNC(=O)c1ccc(Oc2sc(C(N)=O)c3c2-c2sncc2CC3)c(C)n1 [Example 119, 8-((6-((2-Ethoxyethyl)carbamoyl)-2-methylpyridin-3-yl)oxy)-4,5-dihydrothieno[3,4-g][1,2]benzothiazole-6-carboxamide]
CDK8/CycC
  Percent inhibition of CDK8 activity (%): 108%
CDC2L6/CycC (CDK19)
  Percent inhibition of CDK19 activity (%): 101%
[1]
  inhibition at 1 µM: 68%

## COCC(=O)Nc1ccc(Oc2sc(C(N)=O)c3c2-c2sncc2CC3)c(C)n1 [Example 127, 8-((6-((Methoxyacetyl)amino)-2-methylpyridin-3-yl)oxy)-4,5-dihydrothieno[3,4-g][1,2]benzothiazole-6-carboxamide]
CDK8/CycC
  Percent inhibition of CDK8 activity (%): 106%
CDC2L6/CycC (CDK19)
  Percent inhibition of CDK19 activity (%): 100%
[1]
  inhibition at 1 µM: 65%
